Consider four compounds from patent US10450271B2 (priority 2014, dated 2019).

One assay has as its system Fusarium graminearum. The format is cell-based. Particulars: ethanol as solvent; 500 uL medium lyophilized; HPLC can detect down to ng/sample.
Another assay deals with Aspergillus parasiticus. The assay is classed as cell-based.

In the case of `COc1cc(/C=C/C(=O)N2CCCCC2=O)ccc1O` [Compound 3, (E)-1-(3-(4-hydroxy-3-methyoxyphenyl)acryloyl)piperidin-2-one], the “DON detection by HPLC analysis” value with Fusarium graminearum is given as “not detected”. The “reduction of aflatoxin levels” value in the assay with Aspergillus parasiticus (25 ppm, liquid culture, TLC analysis) was “up to 80%”. For the same compound, the “lowest effective concentration for reducing aflatoxin levels” value in the assay on Aspergillus parasiticus (liquid culture, TLC analysis) worked out at 25 ppm.
Turning to `COc1cc(/C=C/C(=O)N2CCCC2)ccc1O` [Compound 2], the “DON detection by HPLC analysis” value in the assay with Fusarium graminearum is “some DON was detected”.
The same measure, in the same setting: next, `COc1cc(/C=C/C(=O)N2CCCCC2)ccc1O` [Compound 1]: “some DON was detected”.
In the case of `CCC=CCC=CCC=CCCCCCCCC(=O)N1CCCCC1` [Compound 7], the “DON detection by HPLC analysis” value in the assay on Fusarium graminearum was “not detected”. Further, the “effect on aflatoxin accumulation in culture (in words)” value with Aspergillus parasiticus is reported as “reduced aflatoxin accumulation in culture, but the effect was inconsistent from one trial to the next”.
